One experiment relates to filaggrin. Nature of the experiment: Filaggrin gene expression in human keratinocytes (RT-PCR), Example 12. The class given is cell-based. To be noted: 50 ppm. From the text: (§1) Filaggrin, loricrin, and involucrin are known as core proteins constituting the skin barrier. Among them, filaggrin is a protein produced by decomposition of profilagrin, which constitutes keratohyalin granule (KG) present in granule cells of the epidermis, and plays an important role in the skin barrier by aggregating keratin filaments in keratinocytes. Accordingly, it was attempted to identify the skin barrier strengthening effect by identifying he expression of filaggrin and loricrin by the sample.
(§2) Human keratinocytes were cultured in DMEM medium under the same conditions as in Example 9. In order to identify the gene expression related to skin barrier improvement ability, the cultured cells were treated with the SPMs complex composition of the present invention by concentration and cultured, and then RNA was extracted and RT-PCR was performed. The amplified gene was analyzed using the Gel documentation system and Image J program.

Another experiment has as its system loricrin. Nature of the experiment: Loricrin gene expression in human keratinocytes (RT-PCR), Example 12. It is filed as cell-based. To be noted: 50 ppm.
Source text: as §1, §2

Turning to hyaluronic acid, the “increase in expression of filaggrin” value with filaggrin is on record as 52.6%. Further, the “increase in expression of loricrin” value with loricrin is 97.7%.

For the origin of these results see patent publication US20240000680A1, “MONO-HYDROXY OR DI-HYDROXY DERIVATIVES OF POLYUNSATURATED FATTY ACIDS, PRODUCTION METHOD THEREFOR, AND USE THEREOF” (KOLON INDUSTRIES, INC., priority 2019, published 2024).
